Measurements reported in patent US10022354B2, “Pyrrolidine amide compounds as histone demethylase inhibitors” (GENENTECH, INC., priority 2014, dated 2018).

What follows are compounds tested against full length KDM5A enzyme (Homo sapiens (Human), UniProt P29375) (assay: KDM5 Enzyme Assay (KDM5A HTRF)). Details: 2 nM full length KDM5A, 100 nM H3K4Me3 peptide, 1 uM 2-OG, 30 min room temperature.
full length KDM5A enzyme, sequence (P29375 whole entry): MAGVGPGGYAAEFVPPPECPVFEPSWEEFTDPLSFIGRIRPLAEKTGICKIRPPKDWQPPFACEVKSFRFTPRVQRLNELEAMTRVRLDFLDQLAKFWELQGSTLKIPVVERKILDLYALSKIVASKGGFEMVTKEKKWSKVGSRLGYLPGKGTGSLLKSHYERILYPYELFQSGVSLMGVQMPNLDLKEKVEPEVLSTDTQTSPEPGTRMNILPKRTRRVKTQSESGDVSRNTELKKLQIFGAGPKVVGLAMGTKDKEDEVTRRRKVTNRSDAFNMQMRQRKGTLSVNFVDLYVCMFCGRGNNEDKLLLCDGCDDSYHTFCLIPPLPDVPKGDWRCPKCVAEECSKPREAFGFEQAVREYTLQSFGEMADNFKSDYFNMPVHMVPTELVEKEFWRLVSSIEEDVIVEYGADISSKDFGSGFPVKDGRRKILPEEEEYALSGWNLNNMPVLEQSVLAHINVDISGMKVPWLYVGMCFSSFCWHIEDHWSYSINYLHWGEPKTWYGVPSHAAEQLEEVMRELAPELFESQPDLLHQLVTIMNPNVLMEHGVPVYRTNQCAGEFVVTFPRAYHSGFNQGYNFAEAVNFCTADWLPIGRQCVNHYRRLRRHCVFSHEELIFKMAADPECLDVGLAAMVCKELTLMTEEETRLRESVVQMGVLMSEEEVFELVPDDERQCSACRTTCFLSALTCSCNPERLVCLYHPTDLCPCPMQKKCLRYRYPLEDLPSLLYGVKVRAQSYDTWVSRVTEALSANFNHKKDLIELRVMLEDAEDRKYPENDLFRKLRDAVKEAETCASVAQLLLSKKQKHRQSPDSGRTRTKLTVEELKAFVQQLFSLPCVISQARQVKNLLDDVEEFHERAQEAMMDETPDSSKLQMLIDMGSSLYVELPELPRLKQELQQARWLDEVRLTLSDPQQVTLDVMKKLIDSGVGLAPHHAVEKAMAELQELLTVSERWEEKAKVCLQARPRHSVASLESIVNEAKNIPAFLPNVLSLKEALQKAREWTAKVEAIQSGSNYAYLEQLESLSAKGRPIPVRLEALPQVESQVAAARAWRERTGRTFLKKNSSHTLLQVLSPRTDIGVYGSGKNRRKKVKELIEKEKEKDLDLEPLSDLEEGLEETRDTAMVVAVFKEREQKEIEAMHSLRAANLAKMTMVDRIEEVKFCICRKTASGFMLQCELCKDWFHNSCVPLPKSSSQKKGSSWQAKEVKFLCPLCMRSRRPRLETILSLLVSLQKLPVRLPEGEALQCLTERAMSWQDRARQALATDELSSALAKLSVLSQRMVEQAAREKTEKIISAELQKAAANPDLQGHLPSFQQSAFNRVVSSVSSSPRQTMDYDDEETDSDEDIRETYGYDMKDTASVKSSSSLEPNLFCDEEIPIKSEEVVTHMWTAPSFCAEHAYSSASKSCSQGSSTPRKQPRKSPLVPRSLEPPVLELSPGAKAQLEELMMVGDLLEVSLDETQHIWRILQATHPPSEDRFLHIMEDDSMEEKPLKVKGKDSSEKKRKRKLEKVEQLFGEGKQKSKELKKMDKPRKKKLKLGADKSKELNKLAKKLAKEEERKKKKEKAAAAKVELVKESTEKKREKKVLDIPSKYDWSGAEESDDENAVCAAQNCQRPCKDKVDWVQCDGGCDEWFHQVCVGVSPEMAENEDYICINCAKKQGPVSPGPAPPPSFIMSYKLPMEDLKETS
Type: biochemical
Experimental: Full length KDM5A enzyme was expressed and purified inhouse. Biotin-H3K4me3 peptide was purchased from New England Biolabs. HTRF reagents (containing Eu-labeled H3K4me1-2 antibody, and streptavidin-XL665) were purchased from Cis-Bio International. Plates were read on an Envision multi-label plate reader (Perkin Elmer).
The HTRF assay mixture contained 2 nM full length KDM5A enzyme, 100 nM H3K4Me3 peptide substrate, 1 uM 2-OG, 100 uM Fe^2+, 500 uM ascorbate. 50 mM HEPES pH 7.0 buffer, 0.01% Triton-X 100, 2 mM DTT, 0.25% DMSO at a final volume of 10 uL.
The plates were incubated at room temperature for 60 minutes and then read in the Envision plate reader.
Compound Cc1cc(-c2cnn(C)c2)cc([C@H]2CCN(C(=O)c3cc(C(C)C)n[nH]3)C2)n1 (single isomer, unassigned) [Example 1] has an IC50 of 0.17 nM.
Compound Cc1cc(-c2cnn(C)c2)cc([C@@H]2CCN(C(=O)c3cc(C(C)C)n[nH]3)C2)n1 (single isomer, unassigned) [Example 2] has an IC50 of 0.84 nM.
With Cc1ccc(-c2cc(C)nc(C3CCN(C(=O)c4cc(C(C)C)n[nH]4)C3)c2)cc1 (stereo not shown) [Example 3, (3-Isopropyl-1H-pyrazol-5-yl)(3-(6-methyl-4-(p-tolyl)pyridin-2-yl)pyrrolidin-1-yl) methanone] the IC50 was 0.22 nM.
In the case of COC(=O)c1cc(C)nc(C2CCN(C(=O)c3cc(C(C)C)n[nH]3)C2)c1 (stereo not shown) [Example 4, Methyl 2-(1-(3-isopropyl-1H-pyrazole-5-carbonyl)pyrrolidin-3-yl)-6-methylisonicotinate], the IC50 is reported as 12 nM.
Cc1cc(C(=O)N(C)C)cc(C2CCN(C(=O)c3cc(C(C)C)n[nH]3)C2)n1 (stereo not shown) [Example 5, 2-(1-(3-Isopropyl-1H-pyrazole-5-carbonyl)pyrrolidin-3-yl)-N,N,6-trimethylisonicotinamide] was tested, and the IC50 was 7.4 nM.
For Cc1cc(-c2ccccn2)cc(C2CCN(C(=O)c3cc(C(C)C)n[nH]3)C2)n1 (stereo not shown) [Example 6, (3-isopropyl-1H-pyrazol-5-yl)(3-(6′-methyl-[2,4′-bipyridin]-2′-yl)pyrrolidin-1-yl)methanone], the IC50 was 1 nM.
With Cc1cc(Oc2ccccc2)cc(C2CCN(C(=O)c3cc(C(C)C)n[nH]3)C2)n1 (stereo not shown) [Example 7, (3-Isopropyl-1H-pyrazol-5-yl)(3-(6-methyl-4-phenoxypyridin-2-yl)pyrrolidin-1-yl)methanone] the IC50 was 0.13 nM.
Work on Cc1cc(OC(C)C)cc(C2CCN(C(=O)c3cc(C(C)C)n[nH]3)C2)n1 (stereo not shown) [Example 9, (3-(4-Isopropoxy-6-methylpyridin-2-yl)pyrrolidin-1-yl)(3-isopropyl-1H-pyrazol-5-yl)methanone] yielded an IC50 of 8.6 nM.
Cc1cc(N2CCOCC2)cc(C2CCN(C(=O)c3cc(C(C)C)n[nH]3)C2)n1 (stereo not shown) [Example 10, (3-Isopropyl-1H-pyrazol-5-yl)(3-(6-methyl-4-morpholinopyridin-2-yl)pyrrolidin-1-yl)methanone] gave an IC50 of 14 nM.
Cc1cc(NCc2ccccc2)cc(C2CCN(C(=O)c3cc(C(C)C)n[nH]3)C2)n1 (stereo not shown) [Example 11, (3-(4-(Benzylamino)-6-methylpyridin-2-yl)pyrrolidin-1-yl)(3-isopropyl-1H-pyrazol-5-yl)methanone] was tested, and the IC50 was 11 nM.
Compound CC(C)c1cc(C(=O)N2CCC(c3ccn(C(C)C)c(=O)n3)C2)[nH]n1 (stereo not shown) [Example 14, 1-Isopropyl-4-(1-(3-isopropyl-1H-pyrazole-5-carbonyl)pyrrolidin-3-yl)pyrimidin-2(1H)-one] has an IC50 of 0.19 nM.
In the case of CC(C)c1cc(C(=O)N2CCC(C)(NC(=O)C3CC3)C2)[nH]n1 (stereo not shown) [Example 15, N-(1-(3-isopropyl-1H-pyrazole-5-carbonyl)-3-methylpyrrolidin-3-yl)cyclopropanecarboxamide], the IC50 is reported as 2 nM.
For CC(O)c1cc(C(=O)N2CCC(NC(=O)C3CC3)C2)[nH]n1 (stereo not shown) [Example 16, N-(1-(3-(1-hydroxyethyl)-1H-pyrazole-5-carbonyl)pyrrolidin-3-yl)cyclopropanecarboxamide], the IC50 was 0.91 nM.
Compound CC(F)c1cc(C(=O)N2CCC(NC(=O)C3CC3)C2)[nH]n1 (stereo not shown) [Example 17, N-(1-(3-(1-fluoroethyl)-1H-pyrazole-5-carbonyl)pyrrolidin-3-yl)cyclopropanecarboxamide] has an IC50 of 25 nM.
Compound CC(C)(O)c1cc(C(=O)N2CCC(NC(=O)C3CC3)C2)[nH]n1 (stereo not shown) [Example 18, N-(1-(3-(2-hydroxypropan-2-yl)-1H-pyrazole-5-carbonyl)pyrrolidin-3-yl)cyclopropanecarboxamide] has an IC50 of 0.74 nM.
Compound O=C(NC1CCN(C(=O)c2cc(Cc3ccccc3)n[nH]2)C1)C1CC1 (stereo not shown) [Example 20, N-(1-(3-benzyl-1H-pyrazole-5-carbonyl)pyrrolidin-3-yl)cyclopropanecarboxamide] has an IC50 of 4.8 nM.
